Tests used:
[1] = target: T1, L-selectin (Homo sapiens) (UniProt P14151); assay: Inhibition of human L-selectin transfected in mouse 300.19 cells assessed as decrease in protein-mediated cell rolling on GlyCAM-1 or PNAd preincubated for 5 mins followed by cell perfusion through laminar flow chamber coated with GlyCAM-1 or PNAd relative to control; format: cell-based
T1 sequence (whole entry): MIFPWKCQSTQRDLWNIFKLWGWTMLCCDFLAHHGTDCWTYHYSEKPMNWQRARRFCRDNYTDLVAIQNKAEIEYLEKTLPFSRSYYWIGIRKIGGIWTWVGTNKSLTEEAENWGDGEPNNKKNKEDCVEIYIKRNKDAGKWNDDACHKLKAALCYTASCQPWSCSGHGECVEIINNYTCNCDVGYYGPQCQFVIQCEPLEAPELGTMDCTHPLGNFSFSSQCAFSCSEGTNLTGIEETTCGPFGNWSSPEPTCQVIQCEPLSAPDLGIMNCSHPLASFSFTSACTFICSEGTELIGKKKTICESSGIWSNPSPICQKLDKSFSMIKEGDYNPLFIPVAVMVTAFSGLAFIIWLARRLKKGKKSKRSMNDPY

CD209 antigen = target: T2, CD209 antigen (Homo sapiens, UniProt Q9NNX6); assay: Inhibition of DC-SIGN (unknown origin)
T2 sequence (Q9NNX6 whole entry): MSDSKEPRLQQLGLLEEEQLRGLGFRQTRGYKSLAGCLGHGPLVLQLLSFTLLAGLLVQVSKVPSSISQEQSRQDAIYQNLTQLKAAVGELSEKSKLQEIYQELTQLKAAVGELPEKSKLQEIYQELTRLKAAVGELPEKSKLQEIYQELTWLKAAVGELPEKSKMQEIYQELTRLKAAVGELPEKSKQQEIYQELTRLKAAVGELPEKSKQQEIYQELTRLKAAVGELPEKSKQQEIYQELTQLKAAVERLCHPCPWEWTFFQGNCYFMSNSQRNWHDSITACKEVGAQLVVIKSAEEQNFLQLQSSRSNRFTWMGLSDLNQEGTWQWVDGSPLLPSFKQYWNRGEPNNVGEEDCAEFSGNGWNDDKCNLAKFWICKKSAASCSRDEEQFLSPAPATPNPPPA

Compound: CCCO[C@@H]1O[C@H](COS(=O)(=O)O)[C@@H](O[C@@H]2O[C@H](CO)[C@H](O)[C@H](O[C@]3(C(=O)O)C[C@H](O)[C@@H](NC(C)=O)[C@H]([C@H](O)[C@H](O)CO)O3)[C@H]2O)[C@H](O[C@@H]2O[C@@H](C)[C@@H](O)[C@@H](O)[C@@H]2O)[C@@H]1O
- fold change (FC) [1]: 3

Compound: NC(=O)[C@@H](CCC(=O)O)NC(=O)[C@H]1C[C@@H](O)[C@H](O)[C@H](O)[C@H]1SCCCCSCc1cccc(F)c1
- IC50 (CD209 antigen): 3.2 mM

Compound: CCCO[C@@H]1O[C@H](CO)[C@@H](O[C@@H]2O[C@H](CO)[C@H](O)[C@H](O[C@]3(C(=O)O)C[C@H](O)[C@@H](NC(C)=O)[C@H]([C@H](O)[C@H](O)CO)O3)[C@H]2O)[C@H](O[C@@H]2O[C@@H](C)[C@@H](O)[C@@H](O)[C@@H]2O)[C@@H]1O
- fold change (FC) [1]: 1

Compound: CC(=O)N[C@@H]1C(O)O[C@H](CO)[C@@H](O)[C@@H]1O (some centres undefined)
- Ki (CD209 antigen): 11 mM
